Measurements: patent publication US20260250301A1, “KRAS G12D INHIBITORS AND USES THEREOF” (SUZHOU ZANRONG PHARMA LIMITED, priority 2023, published 2026)

Experiments:
[1] = In vivo oral bioavailability assay (mouse PK); conditions: Balb/c mice female, IV bolus 1 mg/kg
Procedure: In Vivo Oral Bioavailability Assay (Mouse PK):
Single dose following IV bolus (1 mg/kg, 0.2 mg/mL in 1% DMSO, 99% SBE-β-CD (10% w/v) in water) and oral gavage (10 mg/kg~60 mg/kg) administration of test compound in Balb/c Mice female. The blood samples were collected at 2 min, 5 min, 10 min, 30 min, 1 hr, 2 hr, 4 hr, 8 hr and 24 hr (additional 32 hr and 48 hr for MRTX1133) after IV bolus, at 15 min, 30 min, 1 hr, 1.5 hr, 2 hr, 3 hr, 4 hr, 8 hr and 24 hr (additional 32 hr and 48 hr for MRTX1133) after PO administration. The plasma concentrations of compounds were determined with UPLC-MS/MS.

[2] = target: T1, P-glycoprotein (Pgp, MDR1) (Homo sapiens, UniProt P08183); assay: MDCK-MDR1 Pgp assessment; assay type: in vitro ADME; conditions: dog, MDCK-MDR1 cells, read-out: Pgp Efflux Ratio (Pexact)
T1 construct: expressed in transfected cells; host or cells: MDCK-MDR1 cells
T1 sequence (P08183 whole entry): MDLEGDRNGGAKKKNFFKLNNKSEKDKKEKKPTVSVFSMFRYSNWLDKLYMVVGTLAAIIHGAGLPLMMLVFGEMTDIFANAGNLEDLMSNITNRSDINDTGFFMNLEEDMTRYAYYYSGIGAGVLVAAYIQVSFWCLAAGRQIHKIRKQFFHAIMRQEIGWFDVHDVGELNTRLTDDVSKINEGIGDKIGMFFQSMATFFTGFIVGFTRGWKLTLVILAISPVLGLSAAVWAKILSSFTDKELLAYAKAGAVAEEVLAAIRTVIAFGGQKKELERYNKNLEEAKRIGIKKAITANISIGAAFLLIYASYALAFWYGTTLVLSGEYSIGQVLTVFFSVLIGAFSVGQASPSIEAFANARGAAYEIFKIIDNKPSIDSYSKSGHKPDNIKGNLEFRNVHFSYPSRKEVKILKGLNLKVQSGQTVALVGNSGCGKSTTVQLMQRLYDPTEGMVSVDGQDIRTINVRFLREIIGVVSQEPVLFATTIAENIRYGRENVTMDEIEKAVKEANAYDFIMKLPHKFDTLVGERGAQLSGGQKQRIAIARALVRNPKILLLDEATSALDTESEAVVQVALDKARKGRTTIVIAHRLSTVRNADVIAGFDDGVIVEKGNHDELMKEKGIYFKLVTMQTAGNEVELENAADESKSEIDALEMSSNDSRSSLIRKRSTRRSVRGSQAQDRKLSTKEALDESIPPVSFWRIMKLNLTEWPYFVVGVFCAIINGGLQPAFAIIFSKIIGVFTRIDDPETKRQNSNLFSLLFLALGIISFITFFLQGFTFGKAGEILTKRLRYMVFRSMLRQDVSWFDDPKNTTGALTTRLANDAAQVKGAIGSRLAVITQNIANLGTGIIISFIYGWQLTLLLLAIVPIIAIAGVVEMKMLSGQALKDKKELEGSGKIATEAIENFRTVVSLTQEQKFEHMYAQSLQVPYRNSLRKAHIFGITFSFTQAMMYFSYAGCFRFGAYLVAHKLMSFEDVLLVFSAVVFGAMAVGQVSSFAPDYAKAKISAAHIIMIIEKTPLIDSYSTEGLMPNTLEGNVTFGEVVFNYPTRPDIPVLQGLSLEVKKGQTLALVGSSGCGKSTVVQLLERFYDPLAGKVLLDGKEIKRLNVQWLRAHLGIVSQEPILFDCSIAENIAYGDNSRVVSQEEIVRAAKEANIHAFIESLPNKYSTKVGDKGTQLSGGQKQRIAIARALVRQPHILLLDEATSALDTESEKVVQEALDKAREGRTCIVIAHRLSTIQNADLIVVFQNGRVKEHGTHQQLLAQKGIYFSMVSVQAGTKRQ
Procedure: Efflux transport mediated by P-glycoprotein (Pgp) was assessed by MDCK-MDR1 cells. The final concentrations of test compounds and control compound were at 1 μM. The multi-well insert plate was incubated at 37 ^9C for 2 hours. In order to reliably measure passive permeability coefficients, Pexact was reported, which automatically corrects for loss of compound.

PANC-1 pERK = assay: Phospho-ERK 1/2 assay; assay type: cell-based; conditions: PANC-1 cells, compound incubation 3 hours, pERK normalised with GAPDH antibody staining
Procedure: Allow PNAC-1 cell growth in a T75 flask in DMEM and 10% 1 fetal calf serum (FCS; Gibco®), using standard tissue culture procedures until ~80% confluency is achieved. Day 1, seed 6000 cells/well in 384 well plate and incubate at 37° C., 5% CO2. Add diluted compound by Echo 550, final DMSO is 0.5%, incubate cells at 37° C., 5% CO2 for 3 hours. Then, remove medium and fix cells with 3.7% formaldehyde in PBS (PFA) by Apricot. Wash with PBS once. Permeabilize cells with cold 100% methanol and repeat wash once with PBS once. Add Li-Cor blocking buffer to each well and incubate 1.5 hours at RT. Remove blocking buffer and add primary antibody mixture (rabbit anti pERK, mouse anti GAPDH). Incubate at 4° C. overnight. Day 2, wash with PBST (Tween-20 in PBS) with total 3 times and then add secondary antibody mixture (goat anti rabbit 800CW (1:800 dilution in the combined solution) and goat anti mouse 680RD (1:800 dilution in the combined solution)), incubate for 60 minutes at RT away from light. Repeat washing with PBST 3 times. After final wash, centrifuge plate up-side-down at 1000 rpm to remove wash solution completely from wells. Before plate scanning, clean the bottom plate surface and the Odyssey© Imager scanning bed (if applicable) with moist, lint-free tissue to avoid any obstructions during scanning. Scan plate with detection in both 700 and 800 nm channels.

Which “Fa*Fg (%)” value ([1]; oral dose 30 mpk) does the source give for `C#Cc1c(F)ccc2cc(O)cc(-c3ncc4c(N5CC6CCC(C5)N6)nc(OC[C@@]56CCCN5C[C@H](F)C6)nc4c3F)c12` [MRTX1133, reference compound] here?
Its value is 0.95%.

Which results are given for `CCc1c(F)ccc2cc(O)cc(-c3nc4c5c(nc(=O)n(CC(C)(CO)N(C)C)c5c3F)N3C[C@H]5CC[C@H](N5)[C@H]3[C@H](C)O4)c12` (single isomer, unassigned) [Example 373a]?
efflux ratio at 2 h, 1 μM [2]: 12.5; IC50 (PANC-1 pERK): 6.4 nM

Which efflux ratio at 2 h, 1 μM [2] does the source give for `C#Cc1c(F)ccc2cccc(-c3nc4c5c(nc(=O)n(CC(C)(CO)N(C)C)c5c3F)N3C[C@H]5CC[C@H](N5)[C@H]3[C@H](C)O4)c12` (single isomer, unassigned) [Example 365a] here?
Its efflux ratio at 2 h, 1 μM is 8.4.

What about the IC50 (PANC-1 pERK) of the same compound?
The IC50 was 6 nM.

With `C#Cc1c(F)ccc2cccc(-c3nc4c5c(nc(=O)n(C[C@H]6CCN6C)c5c3F)N3C[C@H]5CC[C@H](N5)[C@H]3[C@H](C)O4)c12` [Example 366, (8S,8aS,9S,12R)-5-(8-ethynyl-7-fluoronaphthalen-1-yl)-4-fluoro-8-methyl-3-(((R)-1-methylazetidin-2-yl)methyl)-8a,9,10,11,12,13-hexahydro-8H-7-oxa-1,3,6,13a,14-pentaaza-9,12-methanonaphtho[1,8-ab]heptalen-2(3H)-one] as the compound, how does the IC50 (PANC-1 pERK; Homo sapiens, PANC-1, 3 h) read?
The IC50 was 272 nM.

For `C#Cc1c(F)ccc2cccc(-c3nc4c5c(nc(=O)n(CC67CCCN6CC(=C)C7)c5c3F)N3C[C@H]5CC[C@H](N5)[C@H]3CO4)c12` (stereo partly drawn) [Example 2], which IC50 (PANC-1 pERK; Homo sapiens, PANC-1, 3 h) is on record?
Its IC50 is 15 nM.

Which IC50 (PANC-1 pERK; Homo sapiens, PANC-1, 3 h) does the source give for `C#Cc1c(F)ccc2cccc(-c3nc4c5c(nc(=O)n(C[C@]67CC(=C)CN6C[C@@H](F)C7)c5c3F)N3C[C@H]5CC[C@H](N5)[C@H]3[C@H](C)O4)c12` (single isomer, unassigned) [Example 202b] here?
The IC50 was 991 nM.

Which IC50 (PANC-1 pERK; Homo sapiens, PANC-1, 3 h) does the source give for `CCc1c(F)ccc2cc(O)cc(-c3nc4c5c(nc(=O)n(C[C@@]67CCCN6C[C@H](F)C7)c5c3F)N3C[C@@]5(C)CC[C@H](N5)[C@H]3[C@H](C)O4)c12` [Example 361, (5S,5aS,6S,9R)-2-(8-ethyl-7-fluoro-3-hydroxynaphthalen-1-yl)-1-fluoro-13-(((2R,7aS)-2-fluorotetrahydro-1H-pyrrolizin-7a(5H)-yl)methyl)-5,9-dimethyl-5a,6,7,8,9,10-hexahydro-5H-4-oxa-3,10a,11,13,14-pentaaza-6,9-methanonaphtho[1,8-ab]heptalen-12(13H)-one] here?
Its IC50 is 43 nM.

With `C#Cc1c(F)ccc2cccc(-c3nc4c5c(nc(=O)n(C[C@@]67CCCN6C[C@H](F)C7)c5c3F)N3C[C@H]5CC[C@H](N5)[C@H]3CO4)c12` [Example 1, (5aS,6S,9R)-2-(8-ethynyl-7-fluoronaphthalen-1-yl)-1-fluoro-13-(((2R,7aS)-2-fluorotetrahydro-1H-pyrrolizin-7a(5H)-yl)methyl)-5a,6,7,8,9,10-hexahydro-5H-4-oxa-3,10a,11,13,14-pentaaza-6,9-methanonaphtho[1,8-ab]heptalen-12(13H)-one] as the compound, how does the IC50 (PANC-1 pERK; Homo sapiens, PANC-1, 3 h) read?
The IC50 was 386 nM.

For `C#Cc1c(F)ccc2cccc(-c3nc4c5c(nc(=O)n(C6C7CC6CN(C)C7)c5c3F)N3C[C@H]5CC[C@H](N5)[C@H]3[C@H](C)O4)c12` (single isomer, unassigned) [Example 371a], which IC50 (PANC-1 pERK) is on record?
Its IC50 is 304 nM.

With `C=C1CN2CC(=C)CC2(Cn2c(=O)nc3c4c(nc(-c5cc(O)cc6ccc(F)c(CC)c56)c(F)c42)OC[C@@H]2[C@@H]4CC[C@H](CN32)N4)C1` [Example 47] as the compound, how does the IC50 (PANC-1 pERK; Homo sapiens, PANC-1, 3 h) read?
Its IC50 is 629 nM.

For `C#Cc1c(F)ccc2cccc(-c3nc4c5c(nc(=O)n(C[C@@]67CCCN6CC(=C)C7)c5c3F)N3C[C@H]5CC[C@H](N5)[C@H]3[C@H](C)O4)c12` (single isomer, unassigned) [Example 200a], which “Fa*Fg (%)” value ([1]; oral dose 10 mpk) is on record?
The value was 24%.

What about the bioavailability ([1]; mouse, plasma, oral dose 10 mpk) of the same compound?
The bioavailability was 15.8%.

What about the IC50 (PANC-1 pERK; Homo sapiens, PANC-1, 3 h) of the same compound?
Its IC50 is 12 nM.

For `C#Cc1c(F)ccc2cccc(-c3nc4c5c(nc(=O)n(C6C7CC6CN(C)C7)c5c3F)N3C[C@H]5CC[C@H](N5)[C@H]3[C@H](C)O4)c12` (single isomer, unassigned) [Example 371b], which IC50 (PANC-1 pERK) is on record?
Its IC50 is 794 nM.

For `C#Cc1c(F)ccc2cccc(-c3nc4c5c(nc(=O)n(C(C)[C@H]6CCCN6C)c5c3F)N3C[C@H]5CC[C@H](N5)[C@H]3[C@H](C)O4)c12` (stereo partly drawn) [Example 370, (8S,8aS,9S,12R)-5-(8-ethynyl-7-fluoronaphthalen-1-yl)-4-fluoro-8-methyl-3-(1-((R)-1-methylpyrrolidin-2-yl)ethyl)-8a,9,10,11,12,13-hexahydro-8H-7-oxa-1,3,6,13a,14-pentaaza-9,12-methanonaphtho[1,8-ab]heptalen-2(3H)-one], which IC50 (PANC-1 pERK; Homo sapiens, PANC-1, 3 h) is on record?
Its IC50 is 271 nM.

Which IC50 (PANC-1 pERK; Homo sapiens, PANC-1, 3 h) does the source give for `C=C1CN2CCC[C@]2(Cn2c(=O)nc3c4c(nc(-c5cc(O)cc6ccc(F)c(CC)c56)c(F)c42)OC[C@@H]2[C@@H]4CC[C@H](CN32)N4)C1` (single isomer, unassigned) [Example 46b] here?
The IC50 was 28 nM.
